≈ marks a conversion by molar mass, not a printed value.
Legend:
[1] = target: T1, Serine/threonine-protein kinase Nek1 (Homo sapiens) (UniProt Q96PY6); assay: Inhibition of human NEK1 using myelin basic protein as substrate assessed as residual activity at 1 uM in presence of [gamma-33P]-ATP by radiometric hotspot kinase assay relative to control
T1 sequence (whole entry): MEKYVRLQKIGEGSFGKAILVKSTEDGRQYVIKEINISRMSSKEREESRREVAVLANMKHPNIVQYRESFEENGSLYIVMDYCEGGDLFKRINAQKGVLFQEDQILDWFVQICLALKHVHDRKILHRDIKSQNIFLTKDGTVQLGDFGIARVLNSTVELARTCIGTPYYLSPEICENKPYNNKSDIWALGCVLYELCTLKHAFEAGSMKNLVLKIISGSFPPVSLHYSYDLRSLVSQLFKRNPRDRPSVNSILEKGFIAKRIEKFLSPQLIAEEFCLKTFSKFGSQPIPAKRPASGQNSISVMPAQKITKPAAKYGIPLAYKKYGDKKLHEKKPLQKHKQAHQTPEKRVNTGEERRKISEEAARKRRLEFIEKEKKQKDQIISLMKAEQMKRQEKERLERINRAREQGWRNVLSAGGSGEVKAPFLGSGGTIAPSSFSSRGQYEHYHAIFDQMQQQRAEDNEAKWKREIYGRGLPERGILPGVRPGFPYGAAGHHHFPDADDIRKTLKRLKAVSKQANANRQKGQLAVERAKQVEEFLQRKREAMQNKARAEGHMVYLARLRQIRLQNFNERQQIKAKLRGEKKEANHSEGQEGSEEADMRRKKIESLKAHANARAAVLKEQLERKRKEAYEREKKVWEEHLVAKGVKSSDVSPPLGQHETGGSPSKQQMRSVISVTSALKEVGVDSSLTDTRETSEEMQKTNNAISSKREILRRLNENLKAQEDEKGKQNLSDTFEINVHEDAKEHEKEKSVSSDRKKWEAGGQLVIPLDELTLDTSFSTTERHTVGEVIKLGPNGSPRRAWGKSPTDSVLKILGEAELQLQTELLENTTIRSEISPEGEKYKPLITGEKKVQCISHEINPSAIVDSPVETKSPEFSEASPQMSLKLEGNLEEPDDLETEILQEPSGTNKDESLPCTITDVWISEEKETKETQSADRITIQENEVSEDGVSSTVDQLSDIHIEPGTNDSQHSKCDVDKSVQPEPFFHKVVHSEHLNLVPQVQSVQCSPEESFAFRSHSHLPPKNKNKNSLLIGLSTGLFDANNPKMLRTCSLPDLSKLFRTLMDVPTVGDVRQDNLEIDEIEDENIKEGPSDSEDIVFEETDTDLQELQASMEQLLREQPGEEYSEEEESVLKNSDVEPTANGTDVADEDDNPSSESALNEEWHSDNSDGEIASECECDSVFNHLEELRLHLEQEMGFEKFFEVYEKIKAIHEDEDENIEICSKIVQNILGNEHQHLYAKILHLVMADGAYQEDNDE

[2] = target: T1, Serine/threonine-protein kinase Nek1 (Homo sapiens); assay: Inhibition of human NEK1 using myelin basic protein as substrate assessed as residual activity at 10 uM in presence of [gamma-33P]-ATP by radiometric hotspot kinase assay relative to control
[3] = target: T2, Serine/threonine-protein kinase Nek1 (Homo sapiens, UniProt Q96PY6); assay: Inhibition of human NEK1 using myelin basic protein as substrate assessed as residual activity in presence of [gamma-33P]-ATP by radiometric hotspot kinase assay relative to control
T2 sequence (Q96PY6 whole entry): T1 sequence (whole entry)

[4] = target: Cyclin-dependent kinase 2/cyclin E1 (Homo sapiens) (UniProt P24864+P24941); assay: (§1) Inhibition of human recombinant full length C-terminal His6 tagged CDK2/ N-terminal GST-tagged Cyclin E expressed in baculovirus infected Sf21 insect cells using histone H1 as substrate assessed as residual activity at 1 uM pretreated for 20 mins followed by [33P]-ATP addition measured after 120 mins by radiometric hotspot kinase assay relative to control; conditions: time 140.0 min
[5] = target: T3, Serine/threonine-protein kinase Chk1 (Homo sapiens) (UniProt O14757); assay: as §1, with “N-terminal His” for “C-terminal His6”, “CHK1” for “CDK2/ N-terminal GST-tagged Cyclin E”, “CHKtide” for “histone H1”; conditions: time 140.0 min
T3 sequence (whole entry): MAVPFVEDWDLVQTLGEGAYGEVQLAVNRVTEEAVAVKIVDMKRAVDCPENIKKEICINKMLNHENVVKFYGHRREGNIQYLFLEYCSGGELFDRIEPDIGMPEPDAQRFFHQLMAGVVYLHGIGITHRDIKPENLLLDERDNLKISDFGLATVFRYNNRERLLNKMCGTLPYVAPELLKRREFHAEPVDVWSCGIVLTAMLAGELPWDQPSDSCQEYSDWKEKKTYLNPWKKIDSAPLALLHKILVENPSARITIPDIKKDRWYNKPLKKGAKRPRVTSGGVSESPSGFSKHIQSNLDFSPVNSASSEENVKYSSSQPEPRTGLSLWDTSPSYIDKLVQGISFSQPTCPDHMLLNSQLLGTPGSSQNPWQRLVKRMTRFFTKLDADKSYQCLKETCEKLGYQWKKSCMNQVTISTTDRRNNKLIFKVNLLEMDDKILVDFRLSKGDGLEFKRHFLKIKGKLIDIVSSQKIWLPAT

[6] = target: Vascular endothelial growth factor receptor 2 (Homo sapiens) (UniProt P35968); assay: Inhibition of human recombinant C-terminal His6 tagged VEGFR2 (789 to 1356 residues) expressed in baculovirus infected insect cells assessed as residual activity at 1 uM pretreated for 20 mins followed by [33P]-ATP addition measured after 120 mins by radiometric hotspot kinase assay relative to control; conditions: time 140.0 min
[7] = target: T4, Serine/threonine-protein kinase Nek5 (Homo sapiens) (UniProt Q6P3R8); assay: Inhibition of human recombinant NEK5 assessed as residual activity at 1 uM pretreated for 20 mins followed by [33P]-ATP addition measured after 120 mins by radiometric hotspot kinase assay relative to control; conditions: time 140.0 min
T4 sequence (whole entry): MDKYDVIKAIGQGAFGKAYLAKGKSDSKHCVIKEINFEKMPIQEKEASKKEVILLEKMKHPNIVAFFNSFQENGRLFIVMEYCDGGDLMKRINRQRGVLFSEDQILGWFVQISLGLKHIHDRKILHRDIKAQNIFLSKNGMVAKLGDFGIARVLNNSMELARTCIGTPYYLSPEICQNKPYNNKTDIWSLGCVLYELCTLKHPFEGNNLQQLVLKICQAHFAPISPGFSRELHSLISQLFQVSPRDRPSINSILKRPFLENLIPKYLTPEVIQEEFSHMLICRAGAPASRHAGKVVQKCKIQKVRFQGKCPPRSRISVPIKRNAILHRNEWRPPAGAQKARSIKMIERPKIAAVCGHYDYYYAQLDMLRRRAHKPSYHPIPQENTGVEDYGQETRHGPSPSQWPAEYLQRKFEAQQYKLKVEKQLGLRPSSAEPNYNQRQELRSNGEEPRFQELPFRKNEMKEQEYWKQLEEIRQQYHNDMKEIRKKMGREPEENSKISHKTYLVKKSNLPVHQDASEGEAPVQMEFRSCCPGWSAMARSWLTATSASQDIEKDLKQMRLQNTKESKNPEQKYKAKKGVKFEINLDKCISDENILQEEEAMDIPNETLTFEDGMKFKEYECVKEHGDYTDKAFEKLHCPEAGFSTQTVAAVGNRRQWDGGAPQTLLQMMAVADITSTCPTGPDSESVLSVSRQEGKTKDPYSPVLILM

[8] = target: Wee1-like protein kinase (Homo sapiens) (UniProt P30291); assay: Inhibition of human recombinant full length WEE1 expressed in insect cells using MBP as substrate assessed as residual activity at 1 uM pretreated for 20 mins followed by [33P]-ATP addition measured after 120 mins by radiometric hotspot kinase assay relative to control; conditions: time 140.0 min
[9] = Solubility of the compound in E3 medium with 0.2% DMSO by DAD-HPLC based shake flask method; type: physicochemical
[10] = Solubility of the compound in DMEM with 1% DMSO by DAD-HPLC based shake flask method; type: physicochemical
[11] = Stability of the compound in DMEM measured after 48 hrs by DAD-HPLC method; type: physicochemical; conditions: read-out: Stability

Chain of Vascular endothelial growth factor receptor 2 (Homo sapiens) (P35968 whole entry, the tested form may be a part): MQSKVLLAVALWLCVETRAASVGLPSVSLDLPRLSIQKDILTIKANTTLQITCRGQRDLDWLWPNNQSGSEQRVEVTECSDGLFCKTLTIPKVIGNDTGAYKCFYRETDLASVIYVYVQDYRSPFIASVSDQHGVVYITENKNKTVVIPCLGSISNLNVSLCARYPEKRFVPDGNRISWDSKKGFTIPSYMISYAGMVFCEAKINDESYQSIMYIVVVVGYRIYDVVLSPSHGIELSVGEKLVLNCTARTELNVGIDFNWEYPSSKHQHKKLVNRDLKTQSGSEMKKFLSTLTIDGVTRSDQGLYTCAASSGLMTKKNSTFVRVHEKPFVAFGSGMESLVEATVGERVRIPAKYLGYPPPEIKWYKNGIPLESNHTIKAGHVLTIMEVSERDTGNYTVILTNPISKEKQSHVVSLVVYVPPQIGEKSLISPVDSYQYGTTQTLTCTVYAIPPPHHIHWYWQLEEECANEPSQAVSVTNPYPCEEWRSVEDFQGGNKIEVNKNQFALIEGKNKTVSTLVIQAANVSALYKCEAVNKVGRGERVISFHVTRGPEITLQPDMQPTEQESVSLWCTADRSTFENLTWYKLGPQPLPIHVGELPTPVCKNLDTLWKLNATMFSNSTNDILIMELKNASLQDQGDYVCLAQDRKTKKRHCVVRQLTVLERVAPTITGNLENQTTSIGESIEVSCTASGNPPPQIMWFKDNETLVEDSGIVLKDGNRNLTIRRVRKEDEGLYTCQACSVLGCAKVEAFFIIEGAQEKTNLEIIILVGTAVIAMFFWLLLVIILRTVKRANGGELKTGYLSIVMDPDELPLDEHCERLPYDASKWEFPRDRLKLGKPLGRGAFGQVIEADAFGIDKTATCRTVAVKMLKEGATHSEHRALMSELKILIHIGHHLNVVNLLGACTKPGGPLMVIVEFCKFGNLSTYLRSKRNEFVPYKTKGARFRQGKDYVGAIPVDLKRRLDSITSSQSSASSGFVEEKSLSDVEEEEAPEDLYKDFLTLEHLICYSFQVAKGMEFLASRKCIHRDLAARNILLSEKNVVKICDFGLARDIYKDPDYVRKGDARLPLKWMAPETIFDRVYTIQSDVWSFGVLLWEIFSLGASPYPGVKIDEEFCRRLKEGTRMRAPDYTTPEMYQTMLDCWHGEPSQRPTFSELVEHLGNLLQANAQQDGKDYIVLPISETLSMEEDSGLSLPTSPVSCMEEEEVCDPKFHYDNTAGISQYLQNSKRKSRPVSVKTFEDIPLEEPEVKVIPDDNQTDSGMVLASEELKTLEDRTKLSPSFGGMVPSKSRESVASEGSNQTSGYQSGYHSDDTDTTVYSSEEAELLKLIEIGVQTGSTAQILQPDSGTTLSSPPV
Chain of Wee1-like protein kinase (Homo sapiens) (P30291 whole entry, looked up): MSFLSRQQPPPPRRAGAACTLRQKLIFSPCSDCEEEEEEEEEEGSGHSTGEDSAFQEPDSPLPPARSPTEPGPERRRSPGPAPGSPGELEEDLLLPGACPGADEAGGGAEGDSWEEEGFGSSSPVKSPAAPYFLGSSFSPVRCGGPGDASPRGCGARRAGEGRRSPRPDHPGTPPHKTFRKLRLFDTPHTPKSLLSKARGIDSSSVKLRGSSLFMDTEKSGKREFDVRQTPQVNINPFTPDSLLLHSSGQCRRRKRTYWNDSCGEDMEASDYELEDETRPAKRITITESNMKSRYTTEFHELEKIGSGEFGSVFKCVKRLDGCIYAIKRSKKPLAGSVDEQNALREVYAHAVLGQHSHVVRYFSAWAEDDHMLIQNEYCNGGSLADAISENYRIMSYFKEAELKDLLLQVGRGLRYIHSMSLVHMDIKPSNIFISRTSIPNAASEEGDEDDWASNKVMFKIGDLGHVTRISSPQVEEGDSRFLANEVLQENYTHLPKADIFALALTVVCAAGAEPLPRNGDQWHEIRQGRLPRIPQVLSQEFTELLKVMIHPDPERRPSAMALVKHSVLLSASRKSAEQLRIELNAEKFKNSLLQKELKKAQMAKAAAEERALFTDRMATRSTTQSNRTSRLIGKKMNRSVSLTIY

Row | Activity [1] | SMILES | other results
1 | 28.5% | O=[N+]([O-])c1cccc(Nc2nccc(Nc3cc(C4CC4)[nH]n3)n2)c1 | –
2 | 87.5% | Cc1cc(Nc2ccnc(Nc3ccccc3C)n2)n[nH]1 | –
3 | 90.1% | Cc1cc(Nc2ccnc(Nc3cccc4ccccc34)n2)n[nH]1 | –
4 | 99.8% | COCCNc1nccc(Nc2cc(C)[nH]n2)n1 | –
5 | 95.4% | Cc1cc(Nc2ccnc(NCc3ccccc3)n2)n[nH]1 | –
6 | 95.1% | Cc1cc(Nc2ccnc(NC3CC3)n2)n[nH]1 | –
7 | 97.2% | Cc1cc(Nc2ccnc(NCc3ccc4c(c3)OCO4)n2)n[nH]1 | –
8 | 91.8% | Cc1cc(Nc2ccnc(N(C)Cc3ccccc3)n2)n[nH]1 | –
9 | 36.6% | Cc1cc(Nc2ccnc(Nc3cccc([N+](=O)[O-])c3)n2)n[nH]1 | –

The remaining lines, values behind:

Row | SMILES | Activity [1] | other results
10 | Cc1ccc(-c2c[nH]c3ncc(-c4cccc(C#N)c4)cc23)cc1 | 72.8% | –
11 | COC(=O)c1cccc(-c2cnc3[nH]cc(-c4ccc(C)cc4)c3c2)c1 | 47.9% | –
12 | COc1cccc(-c2c[nH]c3ncc(-c4cccc(C#N)c4)cc23)c1 | 41.1% | –
13 | COC(=O)c1cccc(-c2cnc3[nH]ccc3c2)c1 | – | Activity [2]: 44.7%
14 | COC(=O)c1cccc(-c2cnc3[nH]cc(-c4cccc([N+](=O)[O-])c4)c3c2)c1 | 28.5% | –
15 | N#Cc1cccc(-c2cnc3[nH]cc(-c4cccnc4)c3c2)c1 | 17.4% | IC50 [3]: 0.129 µM; Activity [4]: 2.9%; Activity [5]: 69.6%; Activity [6]: 35%; Activity [7]: 27.9%; Activity [8]: 83.4%; solubility [9]: 7.2 µM (≈ 2.13 µg/mL); solubility [10]: 5.7 µM (≈ 1.69 µg/mL); remaining at 48 h [11]: 98%
16 | c1ccc(-c2cnc3[nH]cc(-c4ccccc4)c3c2)cc1 | 29.3% | –
17 | Cc1cc(Nc2ccnc(N3CCN(C)CC3)n2)n[nH]1 | 98.4% | –
18 | COC(=O)c1cccc(-c2cnc3[nH]cc(-c4ccccc4C)c3c2)c1 | 61% | –
19 | c1ccc(-c2cnc3[nH]ccc3c2)cc1 | – | Activity [2]: 62.9%
20 | CNC(=O)c1cccc(-c2cnc3[nH]ccc3c2)c1 | – | Activity [2]: 67.2%

Reference: ChEMBL document CHEMBL5053535, “Design, synthesis and biological evaluation of novel aminopyrazole- and 7-azaindole-based Nek1 inhibitors and their effects on zebrafish kidney development” (Bioorg Med Chem Lett, 2021)
